Results: patent US12071404B2, “Aza (indole)-, benzothiophene-, and benzofuran-3-sulfonamides” (UCB Pharma GmbH, priority 2016, dated 2024)

What follows are compounds tested against GPR17 (Homo sapiens, UniProt Q13304) (assay: Calcium mobilization functional assay (GPR17 Ca2+ assay)). Details: CHO hGPR17 cells, inhibition of 50 nM MDL29,951, Calcium 5 dye, FLIPR; read-out: Ca2+ assay pIC50 (converted).
Type: cell-based
Parameters: host or cells: Flp-In T-REx CHO
Experimental: Flp-In T-REx CHO cells stably expressing human GPR17 receptor (CHO hGPR17) from Evi Kostenis' lab (Bonn University, Germany) were cultured at 37° C. in a humidified atmosphere of 5% CO2. Cells were grown in DMEM with Nutrient Mixture F-12 supplemented with hygromycin B (500 μg/mL) and blasticidin (30 μg/mL). Expression from the Flp-In locus was induced by treatment with doxycycline (1 μg/mL) for 16-20 h prior assays.
GPR17 is a G-protein coupled receptor. GPR17 activation triggers Gq-type G-protein signaling resulting in endoplasmic reticulum calcium (Ca^2+) stores release in cytosol which can be measured using Calcium 5 dye, a fluorescent indicator dye of cytosolic Ca^2+ levels. All Examples were tested in GPR17 Ca^2+ assay to determine (screen) their GPR17 modulating activity.
CHO hGPR17 were defrosted and seeded at a density of 20,000 cells per well into black 384-well plates with clear bottom. Cells were incubated overnight at 37° C. in a humidified atmosphere of 5% CO2. Sixteen to twenty hours after seeding, CHO hGPR17 were loaded for 60 min with Calcium 5 dye, a cytosolic Ca^2+ indicator fluorescent dye, according to manufacturer's instructions. Fluorescent signal relative to cytosolic Ca^2+ concentration was recorded over time at room temperature in FLIPR Tetra reader. […] Then, 50 nM MDL29,951, a GPR17 agonist, was added to the cells. Inhibitory effects of varying concentrations test compounds were measured and resulting plC50s were determined. […] Analysis and curve fitting were performed in ActivityBase XE using XLfit 4-parameter logistic equation y=A+((B−A)/(1+((C/x)^D))) where A, B, C and D stand for minimum y, maximum y, IC50 and slope, respectively.
The activities of the Example compounds tested are depicted in the table in Section B2B below. The activity ranges A, B and C refer to plC50 values in the Ca^2+ assay as follows: “A”: plC50<7.5, “B”: plC50 7.5<x≤ 8.5, “C”: plC50>8.5

GPR17, sequence (Q13304 whole entry): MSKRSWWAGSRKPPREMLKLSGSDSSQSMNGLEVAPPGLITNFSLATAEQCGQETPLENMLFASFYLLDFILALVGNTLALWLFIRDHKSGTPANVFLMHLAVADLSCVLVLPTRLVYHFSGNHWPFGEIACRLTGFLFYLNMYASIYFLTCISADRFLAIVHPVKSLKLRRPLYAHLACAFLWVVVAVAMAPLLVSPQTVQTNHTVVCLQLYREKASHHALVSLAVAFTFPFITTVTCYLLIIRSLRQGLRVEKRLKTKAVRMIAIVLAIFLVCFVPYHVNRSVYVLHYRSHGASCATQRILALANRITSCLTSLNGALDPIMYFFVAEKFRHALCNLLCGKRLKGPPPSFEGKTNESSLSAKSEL

IC50 | Structure (SMILES)
> 31.6 nM | Cc1cc(NS(=O)(=O)c2c[nH]c3cc(Cl)ccc23)c(F)cc1Cl [Compound I-214, 6-chloro-N-(4-chloro-2-fluoro-5-methylphenyl)-1H-indole-3-sulfonamide]
> 31.6 nM | O=S(=O)(Nc1ccc(I)cc1F)c1c[nH]c2cc(C(F)(F)F)ccc12 [Compound I-42, N-(2-fluoro-4-iodophenyl)-6-(trifluoromethyl)-1H-indole-3-sulfonamide]
> 31.6 nM | N#Cc1ccc(NS(=O)(=O)c2c[nH]c3cc(OCC4CCCO4)ccc23)c(F)c1 (stereo not drawn) [Compound I-222, N-(4-cyano-2-fluorophenyl)-6-(tetrahydrofuran-2-ylmethoxy)-1H-indole-3-sulfonamide]
> 31.6 nM | Cc1ccc2c(S(=O)(=O)Nc3cccc4c3OCO4)c[nH]c2c1 [Compound I-29, N-(1,3-benzodioxol-4-yl)-6-methyl-1H-indole-3-sulfonamide]
> 31.6 nM | O=S(=O)(Nc1ccc(Br)cc1)c1c[nH]c2cc(Cl)ccc12 [Compound I-218, N-(4-bromophenyl)-6-chloro-1H-indole-3-sulfonamide]
> 31.6 nM | N#Cc1ccc(NS(=O)(=O)c2c[nH]c3ncc(Cl)cc23)cc1 [Compound I-77, 5-chloro-N-(4-cyanophenyl)-1H-pyrrolo[2,3-b]pyridine-3-sulfonamide]
> 31.6 nM | COc1cccc2c(S(=O)(=O)Nc3ccc(C#N)cc3F)c[nH]c12 [Compound I-115, N-(4-cyano-2-fluorophenyl)-7-methoxy-1H-indole-3-sulfonamide]
> 31.6 nM | CS(=O)(=O)c1ccc2c(S(=O)(=O)Nc3ccc4c(c3)OC(F)(F)O4)c[nH]c2c1 [Compound I-36, N-(2,2-difluoro-1,3-benzodioxol-5-yl)-6-(methylsulfonyl)-1H-indole-3-sulfonamide]
< 3.16 nM | O=S(=O)(Nc1ccc2nsnc2c1)c1c[nH]c2cc(C(F)(F)F)ccc12 [Compound I-192, N-(2,1,3-benzothiadiazol-5-yl)-6-(trifluoromethyl)-1H-indole-3-sulfonamide]
> 31.6 nM | N#CCc1ccc(NS(=O)(=O)c2c[nH]c3cc(Cl)ccc23)cc1 [Compound I-180, 6-chloro-N-[4-(cyanomethyl)phenyl]-1H-indole-3-sulfonamide]
> 31.6 nM | COc1ccc2c(S(=O)(=O)Nc3cc4c(cc3F)OC(F)(F)O4)c[nH]c2c1 [Compound I-71, 6-methoxy-N-(2,2,6-trifluoro-1,3-benzodioxol-5-yl)-1H-indole-3-sulfonamide]
> 31.6 nM | COCCOc1ccc2c(S(=O)(=O)Nc3cc(F)c(C#N)cc3F)c[nH]c2c1 [Compound I-146, N-(4-cyano-2,5-difluorophenyl)-6-(2-methoxyethoxy)-1H-indole-3-sulfonamide]
> 31.6 nM | O=S(=O)(Nc1ccc(S(F)(F)(F)(F)F)cc1)c1c[nH]c2cc(Cl)ccc12 [Compound I-217, 6-chloro-N-[4-(pentafluoro-lambda6-sulfanyl)phenyl]-1H-indole-3-sulfonamide]
> 31.6 nM | COc1ccc2c(S(=O)(=O)Nc3cccc4c3OC(F)(F)O4)c[nH]c2c1 [Compound I-72, N-(2,2-difluoro-1,3-benzodioxol-4-yl)-6-methoxy-1H-indole-3-sulfonamide]
> 31.6 nM | O=S(=O)(Nc1cccc2nsnc12)c1c[nH]c2cc(F)cc(F)c12 [Compound I-166, N-(2,1,3-benzothiadiazol-4-yl)-4,6-difluoro-1H-indole-3-sulfonamide]
> 31.6 nM | O=S1(=O)CCc2ccc(NS(=O)(=O)c3c[nH]c4cc(Cl)ccc34)cc21 [Compound I-10, 6-chloro-N-(1,1-dioxido-2,3-dihydro-1-benzothiophen-6-yl)-1H-indole-3-sulfonamide]
> 31.6 nM | N#Cc1ccc(NS(=O)(=O)c2c[nH]c3ccc(Cl)cc23)cc1 [Compound I-17, 5-chloro-N-(4-cyanophenyl)-1H-indole-3-sulfonamide]
> 31.6 nM | O=S(=O)(Nc1cccc(F)c1F)c1c[nH]c2cc(Cl)ccc12 [Compound I-205, 6-chloro-N-(2,3-difluorophenyl)-1H-indole-3-sulfonamide]
> 31.6 nM | Cc1cc2c(S(=O)(=O)Nc3cc(F)ccc3F)c[nH]c2cc1Br [Compound I-27, 6-bromo-N-(2,5-difluorophenyl)-5-methyl-1H-indole-3-sulfonamide]
> 31.6 nM | O=S(=O)(Nc1ccc(I)cc1F)c1c[nH]c2ncc(I)cc12 [Compound I-101, N-(2-fluoro-4-iodophenyl)-5-iodo-1H-pyrrolo[2,3-b]pyridine-3-sulfonamide]

IC50 | Structure (SMILES)
3.16 to 31.6 nM | O=S(=O)(Nc1cc2nsnc2cc1F)c1c[nH]c2nc(Cl)ccc12 [Compound I-144, 6-chloro-N-(6-fluoro-2,1,3-benzothiadiazol-5-yl)-1H-pyrrolo[2,3-b]pyridine-3-sulfonamide]
< 3.16 nM | N#Cc1cc(F)c(NS(=O)(=O)c2c[nH]c3c4c(ccc23)CCC4)cc1F [Compound I-148, N-(4-cyano-2,5-difluorophenyl)-1,6,7,8-tetrahydrocyclopenta[g]indole-3-sulfonamide]
3.16 to 31.6 nM | Cc1cc2c(S(=O)(=O)Nc3ccc(C#N)cc3)c[nH]c2cc1Br [Compound I-18, 6-bromo-N-(4-cyanophenyl)-5-methyl-1H-indole-3-sulfonamide]
> 31.6 nM | O=S(=O)(Nc1cc(F)ccc1F)c1c[nH]c2cc3c(cc12)OCO3 [Compound I-30, N-(2,5-difluorophenyl)-5H-[1,3]dioxolo[4,5-f]indole-7-sulfonamide]
3.16 to 31.6 nM | N#Cc1ccc(NS(=O)(=O)c2c[nH]c3c4c(ccc23)CCC4)cc1F [Compound I-149, N-(4-cyano-3-fluorophenyl)-1,6,7,8-tetrahydrocyclopenta[g]indole-3-sulfonamide]
> 31.6 nM | O=S(=O)(Nc1ccc(Cl)cc1F)c1c[nH]c2cc(F)ccc12 [Compound I-51, N-(4-chloro-2-fluorophenyl)-6-fluoro-1H-indole-3-sulfonamide]
> 31.6 nM | COc1ccc2c(S(=O)(=O)Nc3cc(F)c(F)cc3F)c[nH]c2c1 [Compound I-2, 6-methoxy-N-(2,4,5-trifluorophenyl)-1H-indole-3-sulfonamide]
> 31.6 nM | O=S(=O)(Nc1cc2c(cc1F)OC(F)(F)O2)c1c[nH]c2c1ccc1cccnc12 [Compound I-70, N-(2,2,6-trifluoro-1,3-benzodioxol-5-yl)-1H-pyrrolo[3,2-h]quinoline-3-sulfonamide]
> 31.6 nM | CC(C#N)c1ccc(NS(=O)(=O)c2c[nH]c3cc(Cl)ccc23)c(F)c1 (stereo not drawn) [Compound I-207, 6-chloro-N-[4-(1-cyanoethyl)-2-fluorophenyl]-1H-indole-3-sulfonamide]
> 31.6 nM | Cc1ccc(NS(=O)(=O)c2c[nH]c3c2ccc2ccccc23)c(F)c1 [Compound I-121, N-(2-fluoro-4-methylphenyl)-1H-benzo[g]indole-3-sulfonamide]
> 31.6 nM | O=S(=O)(Nc1ccc(Cl)cc1F)c1c[nH]c2cc3c(cc12)OCO3 [Compound I-43, N-(4-chloro-2-fluorophenyl)-5H-[1,3]dioxolo[4,5-f]indole-7-sulfonamide]
> 31.6 nM | O=S(=O)(Nc1ccc(C(F)(F)F)cn1)c1c[nH]c2cc(Cl)ccc12 [Compound I-211, 6-chloro-N-[5-(trifluoromethyl)pyridin-2-yl]-1H-indole-3-sulfonamide]
> 31.6 nM | COc1ccc2c(S(=O)(=O)Nc3cccc4nsnc34)c[nH]c2c1 [Compound I-64, N-(2,1,3-benzothiadiazol-4-yl)-6-methoxy-1H-indole-3-sulfonamide]
> 31.6 nM | Cc1cc(NS(=O)(=O)c2c[nH]c3cc(Cl)ccc23)ccc1C#N [Compound I-209, 6-chloro-N-(4-cyano-3-methylphenyl)-1H-indole-3-sulfonamide]
> 31.6 nM | O=S(=O)(Nc1cccc2c1OC(F)(F)O2)c1c[nH]c2ncc(I)cc12 [Compound I-99, N-(2,2-difluoro-1,3-benzodioxol-4-yl)-5-iodo-1H-pyrrolo[2,3-b]pyridine-3-sulfonamide]
3.16 to 31.6 nM | O=S(=O)(Nc1ccc2nsnc2c1)c1c[nH]c2c1ccc1ccccc12 [Compound I-157, N-(2,1,3-benzothiadiazol-5-yl)-1H-benzo[g]indole-3-sulfonamide]
> 31.6 nM | N#Cc1ccc(NS(=O)(=O)c2c[nH]c3ccc(I)cc23)cc1 [Compound I-15, N-(4-cyanophenyl)-5-iodo-1H-indole-3-sulfonamide]
> 31.6 nM | O=S(=O)(Nc1cc(F)c(F)cc1F)c1c[nH]c2cc(F)ccc12 [Compound I-41, 6-fluoro-N-(2,4,5-trifluorophenyl)-1H-indole-3-sulfonamide]
> 31.6 nM | O=S(=O)(Nc1cc(F)ccc1F)c1c[nH]c2cc(F)ccc12 [Compound I-37, N-(2,5-difluorophenyl)-6-fluoro-1H-indole-3-sulfonamide]
